Test results from PMC5461540, “MOB1 Mediated Phospho-recognition in the Core Mammalian Hippo Pathway” (Molecular & Cellular Proteomics : MCP, 2017).
Like-named read-outs stand apart in the source and are kept apart here. Where a SMILES comes first, the peptide text is derived from it.

Target: T1, MOB1A (Homo sapiens, UniProt Q9H8S9)
T1 construct: MOB1A (2–216, NP_060691); 6xHis (N, cleaved yes); GST (N, cleaved yes); made in house; host or cells: E. coli BL21 (DE3) CodonPlus RIL
T1 sequence (Q9H8S9 2-216): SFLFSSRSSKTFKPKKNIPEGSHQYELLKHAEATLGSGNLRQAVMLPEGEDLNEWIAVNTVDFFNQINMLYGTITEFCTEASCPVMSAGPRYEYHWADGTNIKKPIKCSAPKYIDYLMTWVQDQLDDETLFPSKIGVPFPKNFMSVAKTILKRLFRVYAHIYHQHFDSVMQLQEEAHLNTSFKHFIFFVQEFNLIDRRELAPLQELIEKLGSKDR
Experiment: Fluorescence polarization peptide binding assay, MOB1A wild-type
Conditions: FP
Description: Human MST1 kinase domain (amino acids 2–326, corresponding to NCBI RefSeq protein NP_006273), MST2 kinase domain (2–322, NP_006272), MOB1B (2–216, NP_001231695), MOB1A (2–216, NP_060691) wild-type and indicated MOB1A mutant proteins, MOB2 (2–237, NP_001165694), MOB3A (2–217, NP_570719), MOB3B (2–216, NP_079037), MOB3C (2–216, NP_660322), MOB4 (2–225, NP_056202), MOB4^RRR→AAA (2–225), and yeast Mob1 (79–314, NP_012160) were expressed in E. coli BL21 (DE3) CodonPlus RIL cells as N-terminal dual 6xhistidine (HIS) and glutathione S-transferase (GST), Tobacco Etch Virus (TEV) cleavable, fusion proteins using a modified pETM-30 vector. MOB wild-type and mutants were purified in batch on glutathione-Sepharose resin (GE Healthcare, Uppsala, Sweden) and eluted by cleavage from the affinity tags with HIS tagged TEV protease. TEV protease was removed from the eluted protein by subtractive immobilized-metal affinity chromatography. Cleaved protein was then concentrated and buffer exchanged by size exclusion chromatography (SEC) using a Superdex 75 120 ml column (GE Healthcare). For GST pull-downs and Far-Western analysis, the TEV cleavage step was omitted.
MST1 phosphopeptides encompassing pT353 and pT367 (15-mers) used for crystallization and FITC labeled nonphosphorylated and phosphorylated MST1 T353 peptides, T367 peptides, T329-T340 peptides, T380-T387 peptides and optimized Nud1-like peptides for fluorescence polarization binding experiments were purchased from Biomatik (Cambridge, ON). Peptide sequences used for crystallization studies are: T353, […](p)TMIEH and T367, […](p)TMVINA. All peptides used for biophysical studies are listed in supplemental Table S1.
Twelve-point fluorescence polarization binding measurements were performed in triplicate in 384-well plate format using an Analyst HT (Artisan-Scientific, Sunnyvale, CA) reader. Each 20 μl measurement condition contained 20 nM FITC labeled MST1 peptide or Nud1-like peptide and the indicated concentration of MOB proteins in 25 mM HEPES pH 7.5, 150 mM NaCl, 2 mM DTT, and 1 mg/ml bovine serum albumin (BSA). Kd values were obtained by fitting the results to a one site-specific binding model using GraphPad Prism.

[1] = Fig. 3D summary of MST1 phosphopeptide affinities for MOB1A, read-out: Kd
[2] = 20 nM FITC labeled peptide, recombinant wild-type MOB1A, pH 7.5

Compound	Kd [1] [µM]	Kd [2]	further results
CSCC[C@H](NC(=O)[C@H](CCC(=O)O)NC(=O)[C@H](CC(=O)O)NC(=O)CNC(=O)[C@@H](NC(=O)[C@H](C)NC(=O)[C@H](CCCNC(=N)N)NC(=O)[C@@H](NC(=O)[C@H](CCSC)NC(=O)[C@@H](NC(=O)CN)[C@@H](C)O)C(C)C)C(C)C)C(=O)NCC(=O)N[C@H](C(=O)N[C@H](C(=O)N[C@@H](CCCNC(=N)N)C(=O)O)C(C)C)[C@@H](C)OP(=O)(O)O [MST1 T329/pT340 peptide] (HELM PEPTIDE1{G.T.M.V.R.A.V.G.D.E.M.G.[C[C@@H](OP(=O)(O)O)[C@H](N[*:1])C(=O)[*:2]].V.R}$$$$V2.0)	66.1	–	–
CSCC[C@H](NC(=O)[C@H](CCC(=O)O)NC(=O)[C@H](CC(=O)O)NC(=O)CNC(=O)[C@@H](NC(=O)[C@H](C)NC(=O)[C@H](CCCNC(=N)N)NC(=O)[C@@H](NC(=O)[C@H](CCSC)NC(=O)[C@@H](NC(=O)CN)[C@@H](C)OP(=O)(O)O)C(C)C)C(C)C)C(=O)NCC(=O)N[C@H](C(=O)N[C@H](C(=O)N[C@@H](CCCNC(=N)N)C(=O)O)C(C)C)[C@@H](C)O [MST1 pT329/T340 peptide] (HELM PEPTIDE1{G.[C[C@@H](OP(=O)(O)O)[C@H](N[*:1])C(=O)[*:2]].M.V.R.A.V.G.D.E.M.G.T.V.R}$$$$V2.0)	46.5	–	–
CSCC[C@H](NC(=O)[C@H](CCC(=O)O)NC(=O)[C@H](CC(=O)O)NC(=O)CNC(=O)[C@@H](NC(=O)[C@H](C)NC(=O)[C@H](CCCNC(=N)N)NC(=O)[C@@H](NC(=O)[C@H](CCSC)NC(=O)[C@@H](NC(=O)CN)[C@@H](C)OP(=O)(O)O)C(C)C)C(C)C)C(=O)NCC(=O)N[C@H](C(=O)N[C@H](C(=O)N[C@@H](CCCNC(=N)N)C(=O)O)C(C)C)[C@@H](C)OP(=O)(O)O [MST1 pT329/pT340 peptide] (HELM PEPTIDE1{G.[C[C@@H](OP(=O)(O)O)[C@H](N[*:1])C(=O)[*:2]].M.V.R.A.V.G.D.E.M.G.[C[C@@H](OP(=O)(O)O)[C@H](N[*:1])C(=O)[*:2]].V.R}$$$$V2.0)	–	–	Kd (Supplemental Fig. 4A, 4B, MOB1A, differentially phosphorylated MST1 15-mer peptides, mean ± SEM (n=3), read-out: kd): 49 ± 6 µM
CC[C@H](C)[C@H](NC(=O)[C@H](CCSC)NC(=O)[C@@H](NC(=O)[C@H](CC(N)=O)NC(=O)[C@H](C)NC(=O)CNC(=O)[C@H](CC(=O)O)NC(=O)[C@@H](NC(=O)[C@H](CCSC)NC(=O)[C@@H](NC(=O)[C@H](CO)NC(=O)[C@H](C)NC(=O)[C@@H](N)C(C)C)[C@@H](C)O)[C@@H](C)O)[C@@H](C)O)C(=O)N[C@@H](CCC(=O)O)C(=O)N[C@@H](Cc1c[nH]cn1)C(=O)O [T353] (H-VASTMTDGANTMIEH-OH)	–	no detectable binding	–
CC[C@H](C)[C@H](NC(=O)[C@@H](NC(=O)[C@H](CCSC)NC(=O)[C@@H](NC(=O)CNC(=O)[C@H](CC(C)C)NC(=O)[C@H](CCC(N)=O)NC(=O)[C@H](CO)NC(=O)[C@@H]1CCCN1C(=O)[C@H](CC(C)C)NC(=O)[C@@H](NC(=O)[C@H](CC(=O)O)NC(=O)[C@@H](N)CC(=O)O)[C@@H](C)O)[C@@H](C)O)C(C)C)C(=O)N[C@@H](CC(N)=O)C(=O)N[C@@H](C)C(=O)O [T367] (H-DDTLPSQLGTMVINA-OH)	–	no detectable binding	–
